Assay results taken from patent US7435744B2, “Piperidine derivatives as NMDA receptor antagonists” (Gedeon Richter Vegyeszeti Gyar RT, priority 2001, dated 2008).
Like-named read-outs stand apart in the source and are kept apart here.

Key:
[1] = molecular target: T1, NMDA receptors (NR2B subunit containing) (Rattus norvegicus, UniProt P35439+Q00960); test: Functional NMDA antagonist potency: intracellular calcium measurement in primary cultures of rat cortical neurons (fluorimeter plate reader); type: cell-based
T1 construct: endogenous in cells; host or cells: primary neocortical neurons from 17 day old Charles River rat embryos, 4-7 days in vitro
Excerpt: Assessing the Functional NMDA Antagonist Potency of Compounds in Primary Cultures of Rat Cortical Neurons Based on Measuring the Intracellular Calcium Concentration Using a Fluorimeter Plate Reader
It is known that during postnatal development the subunit composition of neuronal NMDA receptors is changing. […] According to data in the literature and to our own immunocytochemical examinations neuronal cells cultured for 4-7 days in vitro predominantly express the NR2B subunit, together with NR1 subunit. Therefore, functional test of NMDA antagonism in these cells reflects mainly an action on NR2B subunit containing receptors. Since NMDA receptors are known to be permeable to calcium ions upon excitation, the extent of NMDA receptor activation, and its inhibition by functional antagonists can be characterised by measuring the rise in the intracellular calcium concentration following agonist (NMDA) application onto the cells. Since there is very high sequence homology between rat and human NMDA receptors (99, 95, 97% for NR1, NR2A, and NR2B subunits, respectively), it is believed that there is little, if any, difference in their pharmacological sensitivity.
In: Protocols for Neural Cell Culture, eds: Fedoroff, S.; Richardson A., The Humana Press Inc., 13-38.] After isolation, the cells are plated onto standard 96-well microplates and the cultures are maintained in an atmosphere of 95% air-5% CO2 at 37° C. until testing.
The cultures are used for the intracellular calcium measurements after 4-7 days in vitro. […] Loading is stopped by washing twice with the solution used also during the measurement (140 mM NaCl, 5 mM KCl, 2 mM CaCl2, 5 mM HEPES [4-(2-hydroxyethyl)-1-piperazineethane-sulfonic acid], 5 mM HEPES-Na, 20 mM glucose, 10 μM glycine, pH=7.4). Then the test compound dissolved in the above solution (90 μl/well) is added. Intracellular calcium measurements are carried out with a plate reader fluorimeter. A rise is induced by application of 40 μM NMDA in Fluo-4-fluorescence that reflects the intracellular calcium concentration. Inhibitory potency of the test compound is assessed by measuring the reduction in the calcium elevation in the presence of different concentrations of the compound. After the measurement, a standard calibration procedure [Meth. Cell.
Inhibitory potency of a compound at a single concentration point is expressed as percent inhibition of the control NMDA response. Sigmoidal concentration-inhibition curves are fitted over the data and IC50 values are defined as the concentration that produces half of the maximal inhibition that could be achieved with the compound. Mean IC50 values are derived from at least three independent experiments.
(§1) wherein for NMDA IC50—IC50 is determined by the intracellular Ca^2+-concentartion assay on cortical neurons; and for Ro-binding IC50—IC50 is determined by the [^3H]-Ro 25,6981 binding assay on rat cerebral membranes.

NR2B subunit = molecular target: T2, NR2B subunit (Rattus norvegicus, UniProt P35439+Q00960); test: [3H]-Ro 25,6981 binding assay on rat cerebral membranes
T2 construct: from tissue; host or cells: forebrain membranes of male Wistar rats
Experimental: Determining Binding of Compounds to NR2B Subunit by [^3H]-Ro 25,6981 Binding Assay
Briefly, membranes are isolated from the forebrain of male Wistar rats. They are incubated in the presence and absence of test compound for 2 hours at room temperature. […] The applied radioligand (^3H-Ro-25,6981) concentration is 4 nM.
as §1

NMRI mice = test: Mouse formalin test (second phase) for in vivo efficacy; conditions: p.o. 15 min before formalin, licking time 20 to 25 min after formalin, >20 = inhibition less than 50% at 20 mg/kg p.o.; for ED50: po
Experimental: Mouse Formalin Test for Measurement of In Vivo Efficacy
Injection of diluted formalin into the hind paw of rats or mouse is known to elicit a biphasic pain related behaviour measured as time spent by licking/biting of the injured paw. The second phase is generally defined as pain related events detected in the 15-60 min. time interval after formalin injection. It is known that NMDA receptors are involved in the second phase of response to formalin injection and this behavioural response is sensitive to blockade of NMDA receptors [Dickenson, A. and Besson J.-M. (Eds.): Chapter 1, pp. 6-7: Animal models of Analgesia; and Chapter 8, pp. 180-183: Mechanism of Central Hypersensitivity: Excitatory Amino Acid Mechanisms and Their Control—In Pharmacology of Pain. Springer-Verlag (Berlin) 1997.] Therefore, we performed the second phase of formalin test to characterise the efficacy of compounds in vivo. Inhibition of the second phase of response is considered to indicate an analgesic effect against chemically-induced persistent pain [Hunskaar, S., et al.: Formalin Test in Mice, a Useful Technique for Evaluating Mild Analgesics, Journal of Neuroscience Methods, 14 (1985) 69-76.] Male albino Charles River NMRI mice (20-25 g) were used. Prior to the experiment any solid food was withdrawn for 16 hours but the animals had free access to 20% glucose solution. The animals were allowed a 1 hour acclimatisation period spent in a glass cylinder (cc. 15 cm in diameter), then moved to an identical cylinder with a mirror placed behind to facilitate observation. The test substances were suspended in 5% tween-80 (10 ml per kg body weight). and administered orally by gavage 15 min before the formalin injection (20 μl of 1% formalin in 0.9% saline injected subcutaneously into the dorsal surface of the right hindpaw). The time spent by licking and biting of the injected paw was measured from 20 to 25 min. after the formalin injection.

[2] = rat cortical neurons 4-7 days in vitro, 40 μM NMDA, Fluo-4 intracellular Ca2+, read-out: NMDA IC50
[3] = rat forebrain membranes, 4 nM [3H]-Ro 25,6981, 2 hours at room temperature, read-out: Ro-binding IC50

T2 sequence (Q00960 27-1482, other chains not shown): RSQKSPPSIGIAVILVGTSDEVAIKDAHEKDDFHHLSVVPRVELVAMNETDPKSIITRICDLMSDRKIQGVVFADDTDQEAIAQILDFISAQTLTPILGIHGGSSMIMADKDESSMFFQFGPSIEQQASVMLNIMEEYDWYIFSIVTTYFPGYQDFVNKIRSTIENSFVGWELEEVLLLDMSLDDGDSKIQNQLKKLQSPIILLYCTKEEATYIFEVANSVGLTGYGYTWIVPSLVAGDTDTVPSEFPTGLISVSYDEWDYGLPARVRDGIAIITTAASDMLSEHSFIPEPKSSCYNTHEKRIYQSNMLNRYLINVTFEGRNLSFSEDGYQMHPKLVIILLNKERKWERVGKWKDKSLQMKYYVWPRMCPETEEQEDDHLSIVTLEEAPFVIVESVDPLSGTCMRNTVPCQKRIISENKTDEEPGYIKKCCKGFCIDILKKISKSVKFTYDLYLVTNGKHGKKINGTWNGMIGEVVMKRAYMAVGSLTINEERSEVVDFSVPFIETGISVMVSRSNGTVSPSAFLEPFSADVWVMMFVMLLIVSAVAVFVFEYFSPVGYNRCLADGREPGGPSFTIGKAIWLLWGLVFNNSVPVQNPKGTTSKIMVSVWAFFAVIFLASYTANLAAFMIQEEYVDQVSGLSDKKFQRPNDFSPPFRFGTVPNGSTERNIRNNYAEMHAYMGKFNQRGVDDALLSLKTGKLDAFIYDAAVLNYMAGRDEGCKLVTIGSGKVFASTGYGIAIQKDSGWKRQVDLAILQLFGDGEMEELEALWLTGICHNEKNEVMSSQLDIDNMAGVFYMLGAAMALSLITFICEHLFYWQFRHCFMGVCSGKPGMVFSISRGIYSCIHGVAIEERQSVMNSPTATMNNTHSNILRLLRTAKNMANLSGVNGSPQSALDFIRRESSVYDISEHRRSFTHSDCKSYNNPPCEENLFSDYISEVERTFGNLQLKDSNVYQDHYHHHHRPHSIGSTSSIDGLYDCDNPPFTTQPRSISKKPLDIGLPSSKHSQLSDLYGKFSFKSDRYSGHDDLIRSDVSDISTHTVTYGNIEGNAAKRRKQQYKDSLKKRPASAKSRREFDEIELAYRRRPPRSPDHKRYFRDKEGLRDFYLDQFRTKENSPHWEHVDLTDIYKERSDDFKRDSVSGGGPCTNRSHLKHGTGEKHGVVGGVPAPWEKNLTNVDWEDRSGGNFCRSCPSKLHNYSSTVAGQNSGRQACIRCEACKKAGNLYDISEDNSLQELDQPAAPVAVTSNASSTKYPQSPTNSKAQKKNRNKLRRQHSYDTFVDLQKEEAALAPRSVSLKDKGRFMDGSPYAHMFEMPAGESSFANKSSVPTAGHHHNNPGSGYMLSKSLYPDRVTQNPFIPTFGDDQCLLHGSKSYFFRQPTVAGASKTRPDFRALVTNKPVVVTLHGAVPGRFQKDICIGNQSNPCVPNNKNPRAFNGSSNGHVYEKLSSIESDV
T1 sequence (Q00960 27-1482, other chains not shown): as above

Compound	ED50 (NMRI mice)	IC50 [1, 2]	IC50 (NR2B subunit; [3])	other results
O=c1[nH]c2ccc([S+]([O-])CCN3CCC(Cc4ccc(F)cc4)CC3)cc2o1 (centres unmarked) [CI-1041, 6-{2-[4-(4-fluoro-benzyl)-piperidin-1-yl]-ethanesulfinyl}-3H-benzooxazol-2-one, reference compound]	5.3 mg/kg			IC50 [1]: 6.6 nM; IC50 (NR2B subunit): 4 nM
C[C@@H]([C@@H](O)c1ccc(O)cc1)N1CCC(O)(c2ccccc2)CC1 [CP 101,606, (1S,2S)-1-(4-hydroxyphenyl)-2-(4-hydroxy-4-phenylpiperidine-1-yl)-1-propanol, reference compound]	> 20 mg/kg			
Cc1ccc(CC2(O)CCN(CCOc3ccc(O)cc3)CC2)cc1 [Co-101244, 1-[2-(4-hydroxyphenoxy)ethyl]-4-hydroxy-4-(4-methylbenzyl)piperidine, reference compound]	> 20 mg/kg	23 nM	3.3 nM	
Oc1ccc(OCCN2CCC(Cc3ccc(F)cc3)CC2)cc1 [Co-111103, 1-[2-(4-hydroxyphenoxy)ethyl]-4-(4-fluorobenzyl)piperidine, reference compound]	> 20 mg/kg		8.4 nM	
O=C(CCN1CCC(Cc2ccc(F)cc2)CC1)c1ccc2[nH]c(=O)oc2c1 [EMD 95885, reference compound]		35 nM	7.2 nM	ED50 (mg/kg p.o.) (NMRI mice): 5.9 mg/kg
O=C1Cc2cc(NC(=O)C(=O)N3CCC(Cc4ccc(F)cc4)CC3)ccc2N1 [Example 1, 2-[4-(4-Fluoro-benzyl)-piperidin-1-yl]-2-oxo-N-(2-oxo-2,3-dihydro-1H-indol-5-yl)-acetamide]	0.46 mg/kg			
O=C(Nc1ccc2[nH]c(=O)[nH]c2c1)C(=O)N1CCC(Cc2ccc(F)cc2)CC1 [Example 2, 2-[4-(4-Fluoro-benzyl)-piperidin-1-yl]-2-oxo-N-(2-oxo-2,3-dihydro-1H-benzimidazol-5-yl)-acetamide]		0.7 nM	4.7 nM	
O=C(Nc1ccc2[nH]c(=O)oc2c1)C(=O)N1CCC(Cc2ccc(F)cc2)CC1 [Example 3, 2-[4-(4-Fluoro-benzyl)-piperidin-1-yl]-2-oxo-N-(2-oxo-2,3-dihydro-benzoxazol-6-yl)-acetamide]	6.9 mg/kg	3.2 nM	18 nM	
O=C(Nc1ccc2oc(=O)[nH]c2c1)C(=O)N1CCC(Cc2ccc(F)cc2)CC1 [Example 4, 2-[4-(4-Fluoro-benzyl)-piperidin-1-yl]-2-oxo-N-(2-oxo-2,3-dihydro-benzoxazol-5-yl)-acetamide]		4710 nM	> 30000 nM	
O=C(Nc1ccc2[nH]c(=O)[nH]c2c1)C(=O)N1CCC(Cc2ccccc2)CC1 [Example 7, 2-(4-Benzyl-piperidin-1-yl)-2-oxo-N-(2-oxo-2,3-dihydro-1H-benzimidazol-5-yl)-acetamide]		1.4 nM	4.4 nM	
O=C(Nc1ccc2[nH]c(=O)oc2c1)C(=O)N1CCC(Cc2ccccc2)CC1 [Example 8, 2-(4-Benzyl-piperidin-1-yl)-2-oxo-N-(2-oxo-2,3-dihydro-benzoxazol-6-yl)-acetamide]		2.4 nM	5.5 nM	
CS(=O)(=O)Nc1cccc(NC(=O)C(=O)N2CCC(Cc3ccccc3)CC2)c1 [Example 12, 2-(4-Benzyl-piperidin-1-yl)-N-(3-methanesulfonylamino-phenyl)-2-oxo-acetamide]		1010 nM	614 nM	
O=C1COc2cc(NC(=O)C(=O)N3CCC(Cc4ccccc4)CC3)ccc2N1 [Example 24, 2-(4-Benzyl-piperidin-1-yl)-2-oxo-N-(3-oxo-3,4-dihydro-2H-benzo [1,4]oxazin-7-yl)-acetamide]		113 nM	214 nM	
O=C(Nc1ccc2[nH]c(=O)oc2c1)C(=O)N1CCC(Oc2ccc(Cl)cc2)CC1 [Example 31, 2-[4-(4-Chloro-phenoxy)-piperidin-1-yl]-2-oxo-N-(2-oxo-2,3-dihydro-benzoxazol-6-yl)-acetamide]	4.4 mg/kg			
Cc1ccc(CC2CCN(C(=O)C(=O)Nc3ccc4c(c3)CC(=O)N4)CC2)cc1 [Example 101, 2-[4-[4-Methyl-benzyl)-piperidin-1-yl]-2-oxo-N-(2-oxo-2,3-dihydro-1H-indol-5-yl)-acetamide]	0.48 mg/kg			
O=C(CN1CCC(Cc2ccccc2)CC1)Nc1ccc2c(c1)CC(=O)N2 [Example 143, 2-(4-Benzyl-piperidin-1-yl)-N-(2-oxo-2,3-dihydro-1H-indol-5-yl)-acetamide]		164 nM	29 nM	
O=C(CN1CCC(Cc2ccccc2)CC1)Nc1ccc2[nH]c(=O)oc2c1 [Example 146, 2-(4-Benzyl-piperidin-1-yl)-N-(2-oxo-2,3-dihydro-benzoxazol-6-yl)-acetamide]		6 nM	1.7 nM	
O=C(CN1CCC(Cc2ccccc2)CC1)Nc1ccc2[nH]ncc2c1 [Example 147, 2-(4-Benzyl-piperidin-1-yl)-N-(1H-indazol-5-yl)-acetamide]		1330 nM	121 nM	
CC(C(=O)Nc1ccc2[nH]c(=O)oc2c1)N1CCC(Cc2ccccc2)CC1 (centres unmarked) [Example 161, 2-(4-Benzyl-piperidin-1-yl)-N-(2-oxo-2,3-dihydro-1H-benzoxazol-6-yl)-propionamide]	2.4 mg/kg			
O=C(CN1CCC(Cc2ccccc2)CC1)Nc1ccc(O)cc1 [Example 192, 2-(4-Benzyl-piperidin-1-yl)-N-(4-hydroxy-phenyl)-acetamide]	17 mg/kg			
O=C(CNc1ccc2[nH]c(=O)[nH]c2c1)N1CCC(Cc2ccc(F)cc2)CC1 [Example 197, 5-{2-[4-(4-Fluoro-benzyl)-piperidin-1-yl]-2-oxo-ethylamino}-1,3-dihydro-benzoimidazol-2-one]		48 nM	91 nM	
O=C(CNc1ccc2[nH]ncc2c1)N1CCC(Cc2ccc(F)cc2)CC1 [Example 199, 1-[4-(4-Fluoro-benzyl)-piperidin-1-yl]-2-(1H-indazol-5-yl-amino)-ethanone]		533 nM	972 nM	
C[C@@H](CN1CCC(Cc2ccccc2)CC1)[C@@H](O)c1ccc(O)cc1 [Ro 25.6981, R—(R*,S*)-1-(4-hydroxyphenyl)-2-methyl-3-[4-(phenylmethyl)piperidin-1-yl]-1-propanol, reference compound]	> 20 mg/kg			IC50 (NR2B subunit): 5.9 nM
